Tests used:
[1] = methylene blue reference value used for the relative measurement; no reference given; cited from earlier work
Excerpt: The optical and photoacoustic properties of the assemblies were also studied (Fig. 4). When the nanospheres and branched NPs were scanned from 400 to 700 nm for optical absorbance, both adopted a similar peak absorbance to methylene blue at 662 nm. When the peaks were normalized, there was no 614 nm shoulder growth where dimerization typically forms. While the iRGD-BNP maintained methylene blue’s distinct blue color, the iRGD-SNP samples shifted to a slightly greener color. The quantum yield for the branched NPs and the nanospheres relative to methylene blue (52%) were 43% and 31%, respect ...

HEK 293T cells = test: Competitive inhibition flow cytometry with αVβ5 primary antibodies; type: cell-based, human
Protocol: The peptide formulations were further challenged via competitive inhibition flow cytometry studies to confirm their specific interactions with integrin receptors (Fig. 3b, c). In addition to labeling as before, some cells were pre-incubated with αVβ5 primary antibodies before iRGD-BNPs or iRGD-SNPs. […] There was no observable change in fluorescence from the presence of the antibodies for HEK 293-T cells.
300,000 cells were seeded overnight. For the competitive inhibition samples, cell cultures were first treated with αVβ5 mABs ([…]) for 90 min. The cells were then treated with the iRGD-BNPs, iR GD-SNPs, or methylene blue. The cells were detached, collected at 700xG, and the media was decanted while the cells were resuspended in ice cold buffer for flow cytometry using the APC channel.

[2] = Ex vivo biodistribution by methylene blue fluorescence of harvested organs; conditions: ex vivo IVIS fluorescence after euthanasia
Excerpt: The vital organs of the subjects were harvested after euthanasia and analyzed for fluorescence from the methylene blue for biodistribution studies.
After the subject was euthanized, the heart, lungs, liver, spleen, kidneys, and tumor were harvested and rinsed in PBS. The organs were then imaged for fluorescence signal via IVIS Perkin-Elmer Illumination and LivingImage software.

Question: Which results are given for CN(C)c1ccc2nc3ccc(=[N+](C)C)cc-3sc2c1 [methylene blue]?
Answer: quantum yield of reference [1]: 52%; change in fluorescence with αVβ5 antibody pre-incubation (HEK 293T cells): no change in fluorescence increase; fluorescence in vital organs [2]: nonspecific and low fluorescence in all of the vital organs
